Test results reported in the supplement of paper PMC10307832.

Tests used:
Test in all cases: relative viability (nuclei count vs DMSO), 5 days (fraction); higher = more cells survive
Seliciclib + Lapatinib = compound: CC[C@H](CO)Nc1nc(NCc2ccccc2)c2ncn(C(C)C)c2n1 [Seliciclib] + CS(=O)(=O)CCNCc1ccc(-c2ccc3ncnc(Nc4ccc(OCc5cccc(F)c5)c(Cl)c4)c3c2)o1 [Lapatinib] (partner 2 µM)
Summary of the method: (§1)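 Lung cancer cell lines, seeded in 1536-well plates, were treated the following day by pin tool with a single drug or with five library-drug doses (not always all listed) in √10 steps on top of a fixed anchor-drug dose. Cells were fixed and nuclei stained in one step after 5 days, and nuclei were counted. Relative viability is the nuclei count for treated wells divided by that for vehicle wells, reported as medians of duplicate plates.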

Seliciclib + Luminespib = compound: CC[C@H](CO)Nc1nc(NCc2ccccc2)c2ncn(C(C)C)c2n1 [Seliciclib] + CCNC(=O)c1noc(-c2cc(C(C)C)c(O)cc2O)c1-c1ccc(CN2CCOCC2)cc1 [Luminespib] (partner 0.01 µM)
Summary of the method: as §1

Seliciclib + Olaparib = compound: CC[C@H](CO)Nc1nc(NCc2ccccc2)c2ncn(C(C)C)c2n1 [Seliciclib] + O=C(c1cc(Cc2n[nH]c(=O)c3ccccc23)ccc1F)N1CCN(C(=O)C2CC2)CC1 [Olaparib] (partner 8 µM)
Summary of the method: as §1

Seliciclib + Decitabine = compound: CC[C@H](CO)Nc1nc(NCc2ccccc2)c2ncn(C(C)C)c2n1 [Seliciclib] + Nc1ncn([C@H]2C[C@H](O)[C@@H](CO)O2)c(=O)n1 [Decitabine] (partner 2 µM)
Summary of the method: as §1

Row | Cell Line | relative viability (Seliciclib + Lapatinib; first compound 0.08 µM) | relative viability (Seliciclib + Lapatinib; first compound 0.253 µM) | relative viability (Seliciclib + Lapatinib; first compound 0.8 µM) | relative viability (Seliciclib + Lapatinib; first compound 2.53 µM) | relative viability (Seliciclib + Lapatinib; first compound 8 µM) | relative viability (Seliciclib + Luminespib; first compound 0.08 µM) | relative viability (Seliciclib + Luminespib; first compound 0.253 µM) | relative viability (Seliciclib + Luminespib; first compound 0.8 µM) | relative viability (Seliciclib + Luminespib; first compound 2.53 µM) | relative viability (Seliciclib + Luminespib; first compound 8 µM) | relative viability (Seliciclib + Olaparib; first compound 0.08 µM) | relative viability (Seliciclib + Olaparib; first compound 0.253 µM) | relative viability (Seliciclib + Olaparib; first compound 0.8 µM) | relative viability (Seliciclib + Olaparib; first compound 2.53 µM) | relative viability (Seliciclib + Olaparib; first compound 8 µM) | relative viability (Seliciclib + Decitabine; first compound 0.08 µM) | relative viability (Seliciclib + Decitabine; first compound 0.253 µM) | relative viability (Seliciclib + Decitabine; first compound 0.8 µM) | relative viability (Seliciclib + Decitabine; first compound 2.53 µM) | relative viability (Seliciclib + Decitabine; first compound 8 µM)
1 | NCI-H2009 | 0.944 | 1.04 | 0.889 | 0.772 | 0.721 | 0.998 | 1.13 | 1.07 | 1.01 | 0.943 | 0.734 | 0.576 | 0.724 | 0.64 | 0.706 | 0.378 | 0.42 | 0.402 | 0.371 | 0.415
2 | NCI-H1651 | 0.807 | 0.875 | 0.883 | 0.864 | 0.702 | 0.864 | 0.958 | 0.876 | 0.594 | 0.564 | 0.195 | 0.182 | 0.201 | 0.188 | 0.169 | 0.553 | 0.6 | 0.65 | 0.51 | 0.592
3 | NCI-H1666 | 0.722 | 0.8 | 0.48 | 0.474 | 0.476 | 1.01 | 1.08 | 1.04 | 0.968 | 0.778 | 0.737 | 0.82 | 0.725 | 0.752 | 0.604 | 0.641 | 0.712 | 0.797 | 0.58 | 0.664
4 | NCI-H1734 | 1.12 | 0.974 | 1.08 | 0.955 | 0.945 | 0.186 | 0.199 | 0.181 | 0.159 | 0.222 | 0.58 | 0.513 | 0.595 | 0.536 | 0.521 | 0.503 | 0.405 | 0.509 | 0.518 | 0.496
5 | EPLC-272H | 0.814 | 0.861 | 0.805 | 0.913 | 0.847 | 0.297 | 0.204 | 0.214 | 0.177 | 0.231 | 0.919 | 0.729 | 0.667 | 0.791 | 0.441 | 0.373 | 0.432 | 0.336 | 0.395 | 0.342
6 | NCI-H2023 | 0.932 | 0.991 | 0.732 | 0.406 | 0.451 | 0.681 | 0.832 | 0.703 | 0.569 | 0.421 | 0.517 | 0.472 | 0.449 | 0.536 | 0.366 | 0.217 | 0.216 | 0.203 | 0.267 | 0.248
7 | BEN | 0.826 | 0.525 | 0.772 | 0.677 | 0.629 | 0.344 | 0.439 | 0.662 | 0.259 | 0.251 | 0.898 | 1.01 | 1.16 | 1.01 | 0.815 | 0.738 | 0.739 | 0.761 | 0.698 | 0.622
8 | COR-L 105 | 0.367 | 0.347 | 0.416 | 0.311 | 0.279 | 1.07 | 0.428 | 0.817 | 0.859 | 0.532 | 0.656 | 0.602 | 0.7 | 0.713 | 0.733 | 0.568 | 0.664 | 0.648 | 0.605 | 0.557
9 | ABC-1 | 1.18 | 1.06 | 1.19 | 1.17 | 0.894 | 0.447 | 0.753 | 0.478 | 0.378 | 0.396 | 0.864 | 0.741 | 0.615 | – | 0.782 | 1.11 | 1.18 | 1.17 | – | 0.6
10 | HCC-15 | 0.865 | 0.963 | 0.758 | 0.792 | 0.652 | 0.275 | 0.386 | 0.304 | 0.33 | 0.309 | 0.707 | 0.792 | 0.72 | 0.796 | 0.669 | 0.685 | 0.814 | 0.629 | 0.457 | 0.527
11 | NCI-H1793 | 0.888 | 0.54 | 0.583 | 0.77 | 0.655 | 0.216 | 0.158 | 0.147 | 0.307 | 0.14 | 0.942 | 0.655 | 0.834 | 1.09 | 0.761 | 0.496 | 0.47 | 0.477 | 0.539 | 0.529
12 | PC-3 [JPC-3] | 0.455 | 0.52 | 0.418 | 0.421 | 0.445 | 0.81 | 0.584 | 0.63 | 0.605 | 0.66 | 1.05 | 1.25 | 1.06 | 1.1 | 0.978 | 0.819 | 0.883 | 0.906 | 0.809 | 0.767
13 | NCI-H1993 | 0.845 | 0.848 | 0.838 | 0.773 | 0.797 | 0.879 | 0.733 | 0.875 | 0.674 | 0.612 | 0.892 | 0.935 | 1.05 | 0.976 | 1.01 | 0.62 | 0.549 | 0.632 | 0.54 | 0.441
14 | NCI-H1944 | 0.842 | 0.788 | 0.859 | 0.619 | 0.449 | 0.69 | 0.716 | 0.613 | 0.791 | 0.549 | 0.377 | 0.394 | 0.348 | 0.425 | 0.392 | 0.471 | 0.43 | 0.467 | 0.519 | 0.405
15 | NCI-H1915 | 0.951 | 1.13 | 1.02 | 0.936 | 0.853 | 0.756 | 0.765 | 0.785 | 0.853 | 0.653 | 0.27 | 0.287 | 0.273 | 0.227 | 0.196 | 0.252 | 0.264 | 0.277 | 0.243 | 0.255
16 | RERF-LC-KJ | 0.852 | 0.783 | 0.913 | 0.928 | 0.788 | 1.29 | 1.07 | 1.21 | 1.28 | 0.859 | 0.963 | 0.883 | 0.937 | 0.823 | 0.708 | 0.711 | 0.671 | 0.737 | 0.637 | 0.65
